Laboratory results published in patent publication US8563714B2, “Bridged spiro [2.4] heptane derivatives as ALX receptor and/or FPRL2 agonists” (Actelion Pharmaceuticals Ltd., priority 2009, dated 2013).

How the values were obtained:
human ALX receptor = biological target: T1, human ALX receptor (Homo sapiens, UniProt P25090); test: Intracellular calcium measurements (FLIPR), agonistic activity in HEK293-hALXR-Gα16 cells; format: cell-based; conditions: Fluo-4 calcium FLIPR, normalized to WKYMVm 10 nM
T1 construct: expressed in transfected cells; host or cells: HEK293 (HEK293-hALXR-Gα16)
T1 sequence (P25090 1-351): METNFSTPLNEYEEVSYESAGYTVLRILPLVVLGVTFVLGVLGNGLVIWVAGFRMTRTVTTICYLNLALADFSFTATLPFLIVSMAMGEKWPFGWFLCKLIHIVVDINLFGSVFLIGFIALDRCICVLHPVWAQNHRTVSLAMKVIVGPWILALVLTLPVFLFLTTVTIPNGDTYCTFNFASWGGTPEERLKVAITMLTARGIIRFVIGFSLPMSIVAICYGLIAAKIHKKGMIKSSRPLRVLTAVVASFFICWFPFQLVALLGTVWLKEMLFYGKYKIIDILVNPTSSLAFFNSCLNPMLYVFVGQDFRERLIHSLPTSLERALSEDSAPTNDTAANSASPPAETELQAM
Outline: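 HEK293 cells expressing hALXR and Gα16 were loaded with 1 μM Fluo-4 AM and 20 mM HEPES for 60 min at 37°C, then exposed to serially diluted compound. FLIPR fluorescence was read at ex 488/em 540 nm. Baseline-subtracted peak responses were normalized to 10 nM WKYMVm.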

human FPRL2 = biological target: T2, human FPRL2 (Homo sapiens, UniProt P25089); test: Intracellular calcium measurements (FLIPR), agonistic activity in HEK293-hFPRL2-Gα16 cells; format: cell-based; conditions: Fluo-4 calcium FLIPR, normalized to GLY14-Humanin 100 nM
T2 construct: expressed in transfected cells; host or cells: HEK293 (HEK293-hFPRL2-Gα16)
T2 sequence (P25089 1-353): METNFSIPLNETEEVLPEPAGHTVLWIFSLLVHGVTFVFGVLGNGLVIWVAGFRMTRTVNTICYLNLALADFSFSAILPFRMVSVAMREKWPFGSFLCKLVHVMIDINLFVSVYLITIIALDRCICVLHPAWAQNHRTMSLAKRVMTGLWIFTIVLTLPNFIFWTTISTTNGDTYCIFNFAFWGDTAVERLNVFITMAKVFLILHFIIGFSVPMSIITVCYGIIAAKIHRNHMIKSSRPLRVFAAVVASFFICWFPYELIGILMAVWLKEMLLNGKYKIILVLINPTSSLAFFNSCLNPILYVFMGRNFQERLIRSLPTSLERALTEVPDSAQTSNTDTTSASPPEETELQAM
Outline: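 Peak values after baseline subtraction are expressed relative to 100 nM Gly14-Humanin; compounds diluted in assay buffer from 10 mM DMSO stocks.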

O=C(NCCCO)[C@H]1[C@H](C(=O)Nc2ncc(Br)s2)[C@@H]2CC[C@H]1C21CC1 [Example 404, (5R)—N^5-(5-Bromothiazol-2-yl)-(6R)—N^6-(3-hydroxypropyl)-(4S,7R)-[4,7-ethylene-spiro[2.4]heptane]-5,6-dicarboxamide]
EC50 (human ALX receptor): 96 nM | EC50 (human FPRL2): 10000 nM

O=C(NCCCCO)[C@H]1[C@H](C(=O)Nc2ncc(Br)s2)[C@@H]2CC[C@H]1C21CC1 [Example 405, (5R)—N^5-(5-Bromothiazol-2-yl)-(6R)—N^6-(4-hydroxybutyl)-(4S,7R)-[4,7-ethylene-spiro[2.4]heptane]-5,6-dicarboxamide]
EC50 (human ALX receptor): 80 nM | EC50 (human FPRL2): 7840 nM

CC(C)(CO)NC(=O)[C@H]1[C@H](C(=O)Nc2ncc(Br)s2)[C@@H]2CC[C@H]1C21CC1 [Example 406, (5R)—N^5-(5-Bromothiazol-2-yl)-(6R)—N^6-(2-methyl-3-hydroxyprop-2-yl)-(4S,7R)-[4,7-ethylene-spiro[2.4]heptane]-5,6-dicarboxamide]
EC50 (human ALX receptor): 333 nM | EC50 (human FPRL2): 15200 nM

O=C(NCCOCCO)[C@H]1[C@H](C(=O)Nc2ncc(Br)s2)[C@@H]2CC[C@H]1C21CC1 [Example 407, (5R)—N^5-(5-Bromothiazol-2-yl)-(6R)—N^6-(2-(2-hydroxyethoxy)ethyl)-(4S,7R)-[4,7-ethylene-spiro[2.4]heptane]-5,6-dicarboxamide]
EC50 (human ALX receptor): 11 nM | EC50 (human FPRL2): 9230 nM

O=C(N[C@H]1CC[C@H](O)CC1)[C@H]1[C@H](C(=O)Nc2ncc(Br)s2)[C@@H]2CC[C@H]1C21CC1 [Example 408, (5R)—N^5-(5-Bromothiazol-2-yl)-(6R)—N^6-(4-hydroxy-cyclohexyl)-(4S,7R)-[4,7-ethylene-spiro[2.4]heptane]-5,6-dicarboxamide]
EC50 (human ALX receptor): 69 nM | EC50 (human FPRL2): 16300 nM

O=C(NCC1(O)CCCCC1)[C@H]1[C@H](C(=O)Nc2ncc(Br)s2)[C@@H]2CC[C@H]1C21CC1 [Example 409, (5R)—N^5-(5-Bromothiazol-2-yl)-(6R)—N^6-[(1-hydroxy-cyclohexyl)methyl]-(4S,7R)-[4,7-ethylene-spiro[2.4]heptane]-5,6-dicarboxamide]
EC50 (human ALX receptor): 129 nM | EC50 (human FPRL2): 9190 nM

O=C(Nc1ncc(Br)s1)C1C(C(=O)NC2CCNC2)C2CCC1C21CC1 [Example 412, (5R)—N^5-(5-Bromothiazol-2-yl)-(6R)—N^6-(pyrrolidin-3-yl)-(4S,7R)-[4,7-ethylene-spiro[2.4]heptane]-5,6-dicarboxamide]
EC50 (human ALX receptor): 8.9 nM | EC50 (human FPRL2): 1020 nM

CNCCNC(=O)[C@H]1[C@H](C(=O)Nc2ncc(Br)s2)[C@@H]2CC[C@H]1C21CC1 [Example 413, (5R)—N^5-(5-Bromothiazol-2-yl)-(6R)—N^6-(2-(N-methylamino)-ethyl)-(4S,7R)-[4,7-ethylene-spiro[2.4]heptane]-5,6-dicarboxamide]
EC50 (human ALX receptor): 13 nM | EC50 (human FPRL2): 2110 nM

CNCCCNC(=O)[C@H]1[C@H](C(=O)Nc2ncc(Br)s2)[C@@H]2CC[C@H]1C21CC1 [Example 414, (5R)—N^5-(5-Bromothiazol-2-yl)-(6R)—N^6-(3-(N-methylamino)-propyl)-(4S,7R)-[4,7-ethylene-spiro[2.4]heptane]-5,6-dicarboxamide]
EC50 (human ALX receptor): 14 nM | EC50 (human FPRL2): 773 nM

O=C(NC1CCCNC1)[C@H]1[C@H](C(=O)Nc2ncc(Br)s2)[C@@H]2CC[C@H]1C21CC1 (stereo partly drawn) [Example 415, (5R)—N^5-(5-Bromothiazol-2-yl)-(6R)—N^6-(piperidin-3-yl)-(4S,7R)-[4,7-ethylene-spiro[2.4]heptane]-5,6-dicarboxamide]
EC50 (human ALX receptor): 9.1 nM | EC50 (human FPRL2): 354 nM

O=C(NCC1CCCN1)[C@H]1[C@H](C(=O)Nc2ncc(Br)s2)[C@@H]2CC[C@H]1C21CC1 (stereo partly drawn) [Example 416, (5R)—N^5-(5-Bromothiazol-2-yl)-(6R)—N^6-[(pyrrolidin-2-yl)-methyl]-(4S,7R)-[4,7-ethylene-spiro[2.4]heptane]-5,6-dicarboxamide]
EC50 (human ALX receptor): 8.3 nM | EC50 (human FPRL2): 479 nM

O=C(NCC1CCCCN1)[C@H]1[C@H](C(=O)Nc2ncc(Br)s2)[C@@H]2CC[C@H]1C21CC1 (stereo partly drawn) [Example 417, (5R)—N^5-(5-Bromothiazol-2-yl)-(6R)—N^6-[(piperidin-2-yl)-methyl]-(4S,7R)-[4,7-ethylene-spiro[2.4]heptane]-5,6-dicarboxamide]
EC50 (human ALX receptor): 2.1 nM | EC50 (human FPRL2): 262 nM

O=C(NCC1CCCNC1)[C@H]1[C@H](C(=O)Nc2ncc(Br)s2)[C@@H]2CC[C@H]1C21CC1 (stereo partly drawn) [Example 418, (5R)—N^5-(5-Bromothiazol-2-yl)-(6R)—N^6-[(piperidin-3-yl)-methyl]-(4S,7R)-[4,7-ethylene-spiro[2.4]heptane]-5,6-dicarboxamide]
EC50 (human ALX receptor): 0.45 nM | EC50 (human FPRL2): 339 nM

O=C(NC1CNC1)[C@H]1[C@H](C(=O)Nc2ncc(Br)s2)[C@@H]2CC[C@H]1C21CC1 [Example 419, (5R)—N^5-(5-Bromothiazol-2-yl)-(6R)—N^6-(azetidin-3-yl)-(4S,7R)-[4,7-ethylene-spiro[2.4]heptane]-5,6-dicarboxamide]
EC50 (human ALX receptor): 57 nM | EC50 (human FPRL2): 2290 nM
